Results: ChEMBL document CHEMBL1127123, “Justicidin E: A new leukotriene biosynthesis inhibitor” (Bioorg Med Chem Lett, 1993)

Target: T1, Polyunsaturated fatty acid 5-lipoxygenase (Homo sapiens, UniProt P09917)
T1 sequence (P09917 whole entry): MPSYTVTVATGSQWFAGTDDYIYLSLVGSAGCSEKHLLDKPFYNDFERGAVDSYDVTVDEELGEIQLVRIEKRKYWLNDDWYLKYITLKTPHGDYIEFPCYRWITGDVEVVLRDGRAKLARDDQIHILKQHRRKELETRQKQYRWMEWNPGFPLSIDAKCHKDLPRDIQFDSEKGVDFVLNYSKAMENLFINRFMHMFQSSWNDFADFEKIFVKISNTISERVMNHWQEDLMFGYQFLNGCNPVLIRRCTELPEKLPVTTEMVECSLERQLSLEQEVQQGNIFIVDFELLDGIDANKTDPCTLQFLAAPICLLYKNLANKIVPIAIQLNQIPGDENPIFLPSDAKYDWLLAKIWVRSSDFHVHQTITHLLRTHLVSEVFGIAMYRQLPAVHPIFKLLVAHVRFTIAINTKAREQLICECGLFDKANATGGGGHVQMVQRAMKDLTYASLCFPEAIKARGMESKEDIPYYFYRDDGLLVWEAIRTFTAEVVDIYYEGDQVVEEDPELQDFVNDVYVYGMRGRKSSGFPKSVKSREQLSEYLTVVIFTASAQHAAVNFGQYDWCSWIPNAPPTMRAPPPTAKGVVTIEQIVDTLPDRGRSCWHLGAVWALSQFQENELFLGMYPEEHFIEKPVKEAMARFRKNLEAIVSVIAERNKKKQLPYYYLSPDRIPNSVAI
Experiment: In vitro inhibition of human recombinant 5-lipoxygenase enzyme; call rule not given here

| IC50 | SMILES |
| --- | --- |
| 500 nM | O=C1OCc2c1cc1cc3c(cc1c2-c1ccc2c(c1)OCO2)OCO3 |

Target: T1, Polyunsaturated fatty acid 5-lipoxygenase
Experiment: In vitro inhibition of human recombinant lipoxygenase enzyme

| IC50 | SMILES |
| --- | --- |
| 3000 nM | O=C1OCc2c1cc1cc(OCc3ccccc3)ccc1c2-c1ccccc1 |

Target: T1, Polyunsaturated fatty acid 5-lipoxygenase
Experiment: In vitro inhibition of human recombinant lipoxygenase enzyme; No inhibition

| IC50 | SMILES |
| --- | --- |
| Not Active | O=C1OCc2c1cc1cc(OCc3ccc(-c4ccccc4)cn3)ccc1c2-c1ccccc1 |

Target: T1, Polyunsaturated fatty acid 5-lipoxygenase
Experiment: In vitro inhibition of LTB4 biosynthesis by human leukocytes
Type: functional

| IC50 | SMILES |
| --- | --- |
| 180 nM | COc1ccc2c(-c3ccccc3)c3c(cc2c1)C(=O)OC3 |
| 250 nM | Cc1cc2cc3c(cc2c(-c2ccc4c(c2)OCO4)c1C)OCO3 |
| 3800 nM | O=C1OCc2c1cc1ccncc1c2-c1ccccc1 |
| 660 nM | O=C1OC(=O)c2c1cc1cc3c(cc1c2-c1ccc2c(c1)OCO2)OCO3 |
| 70 nM | O=C1OCc2c1cc1cc3c(cc1c2-c1ccc2c(c1)OCO2)OCO3 |
| 22 nM | O=C1OCc2c1cc1cc(OCc3ccc(-c4ccccc4)cn3)ccc1c2-c1ccccc1 |
| 250 nM | O=C1OCc2c1cc1ccccc1c2-c1ccccc1 |
| 100 nM | O=C1OCc2c1cc1cc(OCc3ccccc3)ccc1c2-c1ccccc1 |
| 670 nM | COc1ccc2cc3c(c(-c4ccccc4)c2c1)COC3=O |
| 450 nM | O=C1OCc2c1cc1sccc1c2-c1ccccc1 |
| 4200 nM | O=C1NCc2c1cc1cc3c(cc1c2-c1ccc2c(c1)OCO2)OCO3 |
| 2200 nM | OCc1cc2cc3c(cc2c(-c2ccc4c(c2)OCO4)c1CO)OCO3 |
| 420 nM | c1cc2c(cc1C1c3cocc3Cc3cc4c(cc31)OCO4)OCO2 (stereo unspecified) |
| 760 nM | COc1cc2cc3c(c(-c4ccc5c(c4)OCO5)c2cc1OC)COC3=O [RETROJUSTICIDIN B] |

Further lines, the compound ahead of its results:

| SMILES | IC50 |
| --- | --- |
| COc1ccc(-c2c3c(cc4cc5c(cc24)OCO5)C(=O)OC3)cc1OC | > 5000 nM |
| O=C1OCc2c1cc1ccccc1c2-c1ccncc1 | > 4000 nM |
| COc1ccc(-c2c3c(cc4ccccc24)C(=O)OC3)cc1 | 1400 nM |
| COc1cccc(-c2c3c(cc4ccccc24)C(=O)OC3)c1 | 42 nM |
| O=C1OCc2c1cc1cc3c(cc1c2-c1ccccc1)OCO3 | 160 nM |
| O=C1OCc2c1cc1cc(OCc3ccc4ccccc4n3)ccc1c2-c1ccccc1 | 88 nM |
| O=C1OCc2c1cc1ccccc1c2-c1ccc2c(c1)OCO2 | 380 nM |
| c1cc2c(cc1-c1c3c(cc4cc5c(cc14)OCO5)COC3)OCO2 | 230 nM |
| O=C1OCc2cc3cc4c(cc3c(-c3ccc5c(c3)OCO5)c21)OCO4 [TAIWANIN C] | 250 nM |
